Measured values published in US20250186510A1, “BACTERIAL COMPOSITION FOR USE IN TREATMENT OF SUBSTANCE USE DISORDER” (Bar-Ilan University, priority 2022, published 2025).
“Also recorded” adds a separate entry of the source.

Columns and labels:
[1] = test system: gut microbial community of cocaine-trained rats; assay: Gut microbiota throughout cocaine self-administration (beta diversity); settings: day 3 vs day 12, p=0.001
[2] = test system: gut microbiota in feces of naïve rats; assay: Incubation of feces with cocaine and DHEA in vitro (16S rRNA sequencing, UniFrac, LEfSe)
Method: Bacterial taxa differences in fecal samples were analyzed using the Linear discriminant analysis effect size (LEfSe) method as a response for either cocaine or DHEA (0, 50, 100 and 500 μM). Stool of naïve rats was collected into 15 ml test tubes and stored under anaerobic conditions. The stool was homogenized using a vortex and mechanical stirring. After completion of the preparation, the fecal slurry was incubated at 37° C. under anaerobic conditions. Following a week of anaerobic incubation, DNA was extracted from the slurry, and 16S rRNA gene sequencing was performed (protocols described above).

[3] = test system: cocaine-seeking behavior of rats; settings: cited from earlier work
[4] = test system: cocaine-seeking behavior of cocaine-trained rats; assay: Extinction training after cocaine self-administration, daily DHEA; settings: DHEA 2 mg/kg IP daily, days 13-22, vs Coc-Vehicle
[5] = test system: gut microbiota of cocaine-trained rats; assay: Gut microbiota composition (16S rRNA sequencing, UniFrac, ANCOM) after DHEA during extinction

| SMILES | gut microbial community (beta diversity) over cocaine self-administration [1] | number of overrepresented bacterial features (LEfSe) ([2]; cocaine 100 μM vs PBS) | gut microbiota beta diversity (unweighted UniFrac distances) in vitro ([2]; cocaine 100 μM vs PBS, p=0.047) | number of overrepresented bacterial features (LEfSe) ([2]; cocaine 500 μM vs PBS) | cocaine seeking behavior relative to maintenance levels ([3]; chronic exogenous DHEA 2 mg/kg, previous work) | cocaine-seeking behavior, self-administration model ([3]; pretreatment with DHEA, background) | cocaine-seeking behavior (active lever presses) during extinction [4] | changes in bacterial features (LEfSe) ([2]; DHEA 50 μM) | changes in bacterial features (LEfSe) ([2]; DHEA 100 μM) | gut microbiota composition (weighted UniFrac distances) in vitro ([2]; DHEA 100 μM vs PBS, p=0.036) | R. gnavus among overrepresented bacterial features ([2]; DHEA 500 μM) | number of overrepresented bacterial features (LEfSe) ([2]; DHEA 500 μM vs PBS) | gut microbiota composition (weighted UniFrac distances) in vitro ([2]; DHEA 500 μM vs PBS, p=0.02) | gut microbiota beta diversity (PCoA of unweighted UniFrac distances) ([5]; day 22, coc-DHEA compared with saline-vehicle) | relative abundance of R. gnavus (ANCOM) ([5]; day 22, coc-DHEA vs cocaine-vehicle) |
| --- | --- | --- | --- | --- | --- | --- | --- | --- | --- | --- | --- | --- | --- | --- | --- |
| COC(=O)[C@H]1[C@@H](OC(=O)c2ccccc2)C[C@@H]2CC[C@H]1N2C [Cocaine, benzoylmethylecgonine] | significant change | 12 | significantly changed | 15 |  |  |  |  |  |  |  |  |  |  |  |
| C[C@]12CC[C@H](O)CC1=CC[C@@H]1[C@@H]2CC[C@]2(C)C(=O)CC[C@@H]12 [DHEA, dehydroepiandrosterone] |  |  |  |  | < 20% | attenuated cocaine-seeking behavior | significantly reduced cocaine-seeking behavior | no significant changes | no significant changes | significant change | none of them belonged to R. gnavus; also recorded: not R. gnavus | 16 | significant change | resembled those of rats that received vehicle; also recorded: induces a microbiota more similar to the saline control | increase in the relative abundance of R. gnavus; also recorded: Levels of R. gnavus rose |
